Values joined by “and” are separate entries in the source; they are usually repeats but may differ in a detail not shown here. Equal entries are not always repeated.
Tests used:
Assay type in all cases: in vivo, Cryptotis parva
[1] = system: CIS-induced emesis in the Least Shrew; test: Tropisetron, Δ^9-THC and dexamethasone alone or in combination against CIS (20 mg/kg)-induced emesis, 60 min
Experimental: Briefly, all animals were randomly divided into two groups. On the test day, shrews were habituated to the laboratory environment for at least 1 hr prior to experimentation. […] All drugs were administered at a volume of 0.1 ml/10 g body weight. Immediately following the second injection, each shrew was placed in the observation cage, and both the number of animals vomiting per group and the frequency of vomiting (oral ejections of food or liquid) were recorded for the next 60 min
Poisson regression and logistic regression analyses were employed for two-way analysis of vomiting frequency and protection from emesis, respectively. […] Data regarding the frequency of emesis were analyzed by the Kruskal-Wallis nonparametric one-way analysis of variance (ANOVA), and post hoc analysis by Dunn's multiple comparisons test. The incidence of emesis (number of animals vomiting) was analyzed by Fisher's exact test to determine whether there were differences between groups, and when appropriate, pairwise comparisons were also made. A p value of<0.05 was necessary to achieve statistical significance.

[2] = system: CIS-induced vomiting in the Least Shrew; test: THC and SR141716A on CIS (10 mg/kg)-induced vomiting, acute and delayed phase; conditions: CIS 10 mg/kg i.p., Δ^9-THC 2.5 mg/kg i.p., SR141716A 2 mg/kg i.p.
[3] = system: Fos; test: Fos expression in the dorsal vagal complex resulting from CIS-induced vomiting
Experimental: After the appropriate time period for acute or delayed phase vomiting, shrews were anesthetized with a lethal dose of pentobarbital (100 mg/kg) and perfused transcardially via blunted needle with a peristaltic pump. The shrew was perfused with ice cold 4% paraformaldehyde and 5% picric acid in pH 7.4, 0.1 M phosphate buffer (10 min). Brains were removed and stored in 30% sucrose in 0.1 M PB overnight, then embedded in blocks of 12% gelatin in 30% sucrose/PB. The blocks were postfixed for 3 hr in 2% paraformaldehyde/PB, then rinsed and immersed in 30% sucrose/PB until they sank (usually 1-2 hr). The brain block was cut sagittally on a freezing benchtop microtome (Leica) at 30 μm into 5 series, and stored in PB with 0.03% sodium azide.
Immunolabeling was accomplished by blocking a free-floating series with 10% normal horse serum (NHS) and 3% hydrogen peroxide in PB with 0.3% Tri-ton X-100 (TX) for 30 min. After rinsing in PB, tissue was put in sheep anti-Fos polyclonal antibody (Chemicon/Millipore, Temecula, Calif.; 1:600), with 5% NHS and 0.3% TX in PB, and incubated for about 42 hr at room temperature (RT) with gentle shaking. After rinsing in PB, the tissue was placed in biotinylated donkey anti-sheep IgG secondary antibody (Jackson Immunoresearch, West Grove, Pa.; 1:600) diluted in the same diluent described for the primary antibody, and the tissue incubated at RT with shaking for 75 min Tissue was then rinsed and incubated for 60 min in HRP-conjugated avidin-biotin complex (Vector Labs, Burlingame, Calif.; Vectastain kit diluted 1:2) in PB. Tissue was then rinsed twice in PB, then once in imidazole-acetate buffer (0.1 M, pH 7.4), then reacted for 6 min in 0.0006% hydrogen peroxide with 2% nickel ammonium sulfate-enhanced diaminobenzidine (DAB, 0.05% in 0.1 M imidazole-acetate buffer). All reagents for DAB processing were purchased from Sigma-Aldrich. […]

[4] = 1 mg/kg i.p., administered alone
[5] = 5 mg/kg i.p., administered alone
[6] = Δ^9-THC 1 mg/kg with 0.1 mg/kg tropisetron
[7] = Δ^9-THC 5 mg/kg with 0.025 mg/kg tropisetron
[8] = Δ^9-THC 5 mg/kg with 0.1 mg/kg tropisetron
[9] = Δ^9-THC 5 mg/kg with 0.25 mg/kg tropisetron

In the case of CCCCCc1cc(O)c2c(c1)OC(C)(C)[C@@H]1CCC(C)=C[C@@H]21 [Δ^9-THC, Δ^9-tetrahydrocannabinol], the “reduction in frequency of CIS-induced emesis” value ([1]; 0.25 mg/kg i.p., administered alone) is reported as 59.3%, the “reduction in frequency of CIS-induced emesis” value ([1]; 0.5 mg/kg i.p., administered alone) is reported as 66.7% and the “reduction in frequency of CIS-induced emesis” value [1, 4] is reported as 83.7%. The “reduction in percentage of shrews vomiting in response to CIS” value (from here on “reduction in percentage”) [1, 4] was 64%, the “reduction in percentage” value ([1]; 2.5 mg/kg i.p., administered alone) was 83.3% and 83% and the “reduction in frequency of CIS-induced emesis” value [1, 5] was 96.7%. The “reduction in percentage” value [1, 5] was 92% and 91.6%, the “reduction in percentage” value ([1]; 10 mg/kg i.p., administered alone) was 100% and the “additive or synergistic effect on percentage of animals vomiting” value ([1]; tested combinations of Δ^9-THC and tropisetron) was “no additive or synergistic antiemetic effects”. The “reduction in frequency of vomiting” value ([1]; Δ^9-THC 0.25 mg/kg coadministered with 5 mg/kg DEX) was 55.5%, the “reduction in percentage” value ([1]; Δ^9-THC 0.25 mg/kg in shrews pretreated with 5 mg/kg DEX) was 42% and the “reduction in frequency of CIS-induced emesis” value ([1]; Δ^9-THC 0.25 mg/kg with 0.025 mg/kg tropisetron) was 72.6%. The “reduction in frequency of CIS-induced emesis” value ([1]; Δ^9-THC 0.25 mg/kg with 0.1 mg/kg tropisetron) was 69.7%, the “reduction in frequency of CIS-induced emesis” value ([1]; Δ^9-THC 0.5 mg/kg with 0.025 mg/kg tropisetron) was 56.1% and the “reduction in frequency of CIS-induced emesis” value ([1]; Δ^9-THC 0.5 mg/kg with 0.1 mg/kg tropisetron) was 74.6%. For the same molecule, the “reduction in frequency of CIS-induced emesis” value ([1]; Δ^9-THC 1 mg/kg with 0.025 mg/kg tropisetron) was 61.6%, the “reduction in frequency of CIS-induced emesis” value [1, 6] was 88% and the “reduction in number of shrews vomiting” value [1, 6] was 77%. For the same molecule, the “reduction in frequency of CIS-induced emesis” value ([1]; Δ^9-THC 1 mg/kg with 0.25 mg/kg tropisetron) was 91%, the “reduction in percentage” value ([1]; Δ^9-THC 2.5 mg/kg with DEX 0.25 mg/kg) was 77% and the “reduction in percentage” value ([1]; Δ^9-THC 2.5 mg/kg with DEX 1 mg/kg) was 92%. For the same molecule, the “reduction in percentage” value ([1]; Δ^9-THC 2.5 mg/kg with DEX 5 mg/kg) was 79%, the “reduction in percentage” value ([1]; Δ^9-THC 2.5 mg/kg with DEX 10 mg/kg) was 77% and the “reduction in percentage” value ([1]; Δ^9-THC 2.5 mg/kg with DEX 20 mg/kg) was 50%. For the same molecule, the “reduction in frequency of CIS-induced emesis” value [1, 7] was 86.3%, the “reduction in percentage” value [1, 7] was 75% and the “reduction in frequency of CIS-induced emesis” value [1, 8] was 97.7%. For the same molecule, the “reduction in percentage” value [1, 8] was 88%, the “reduction in frequency of CIS-induced emesis” value [1, 9] was 100% and the “reduction in percentage” value [1, 9] was 100%. The “reduction in percentage” value ([1]; Δ^9-THC 5 mg/kg with DEX 0.25 mg/kg) was 83%, the “reduction in percentage” value ([1]; Δ^9-THC 5 mg/kg with DEX 1 mg/kg) was 92% and the “reduction in percentage” value ([1]; Δ^9-THC 5 mg/kg with DEX 5 mg/kg) was 77%. The “reduction in percentage” value ([1]; Δ^9-THC 5 mg/kg with DEX 10 mg/kg) was 92%, the “reduction in percentage” value ([1]; Δ^9-THC 5 mg/kg with DEX 20 mg/kg) was 77% and the “reduction in percentage” value ([1]; Δ^9-THC 10 mg/kg with DEX 0.25 mg/kg) was 92%. The “reduction in percentage” value ([1]; Δ^9-THC 10 mg/kg with DEX 1 mg/kg) was 83%, the “reduction in percentage” value ([1]; Δ^9-THC 10 mg/kg with DEX 5 mg/kg) was 67% and the “reduction in percentage” value ([1]; Δ^9-THC 10 mg/kg with DEX 10 mg/kg) was 92%. The “reduction in percentage” value ([1]; Δ^9-THC 10 mg/kg with DEX 20 mg/kg) was 75%, the “combination efficacy in reducing the frequency of emesis” value ([1]; Δ^9-THC 0.25 and 0.5 mg/kg combined with tropisetron 0.025 and 0.1 mg/kg) was “significantly greater additive efficacy” and the “effect on frequency of emesis” value ([1]; Δ^9-THC combined with 1 mg/kg or 5 mg/kg tropisetron) was “failed to produce significant reductions”. The “additive or synergistic antiemetic activity” value ([1]; Δ^9-THC combined with DEX, at the doses tested) was “no significant additive or synergistic antiemetic activity”, the “Number vomited per total in group” value ([2]; Acute phase) was 1/8 and the “Number vomited per total in group” value ([2]; Delayed phase) was 2/9. The “number of Fos-immunopositive nuclei vs vehicle injections” value ([3]; acute phase of CIV, NTS, AP and DMNX) was “significantly (P<0.05) reduced” and the “number of Fos-immunopositive nuclei vs vehicle-injected animals” value ([3]; delayed phase, NTS and DMNX) was “significantly fewer”.
